Test results taken from patent US6737383B1, “Herbicidal oxadiazolidines” (priority 1999, dated 2004).

Assays:
bedstraw = test: Test B pre/postemergence bedstraw; type: in vivo, Galium aparine
Outline: (§1)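 Herbicidal effect was estimated by eye on a ten-point control scale after plants spent twelve to sixteen days in a greenhouse following soil or foliar treatment. Foliar sprays targeted plants at one to four leaves; all doses were formulated in a non-phytotoxic solvent with surfactant.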

wild oat = test: Test B pre/postemergence wild oat; type: in vivo, Avena fatua; details: for Plant response rating, Wild oats: Postemergence
Outline: as §1

cocklebur = test: Test B pre/postemergence cocklebur; type: in vivo, Xanthium strumarium
Outline: as §1

blackgrass = test: Test B pre/postemergence blackgrass; type: in vivo, Alopecurus myosuroides
Outline: as §1

velvetleaf = test: Test B pre/postemergence velvetleaf; type: in vivo, Abutilon theophrasti; details: for Plant response rating, Velvetleaf: Postemergence
Outline: as §1

surinam grass = test: Test B pre/postemergence surinam grass; type: in vivo, Brachiaria decumbens
Outline: as §1

morningglory = test: Test B pre/postemergence morningglory; type: in vivo, Ipomoea hederacea
Outline: as §1

purple nutsedge = test: Test B pre/postemergence purple nutsedge; type: in vivo, Cyperus rotundus
Outline: as §1

giant foxtail = test: Test B pre/postemergence giant foxtail; type: in vivo, Setaria faberii
Outline: as §1

soybean = test: Test B pre/postemergence soybean; type: in vivo, Glycine max; details: for Plant response rating, Soybean: Postemergence
Outline: as §1

pigweed = test: Test B pre/postemergence pigweed; type: in vivo, Amaranthus retroflexus; details: for Plant response rating, Redroot pigweed: Postemergence; for Plant response rating, Redroot pigweed / Redroot pigweed plant response rating: scale of 0 to 10 where 0 is no effect and 10 is complete control
Outline: as §1

corn = test: Test B pre/postemergence corn; type: in vivo, Zea mays
Outline: as §1

rape = test: Test B pre/postemergence rape; type: in vivo, Brassica napus
Outline: as §1

crabgrass = test: Test B pre/postemergence crabgrass; type: in vivo, Digitaria sanguinalis
Outline: as §1

sugar beet = test: Test B pre/postemergence sugar beet; type: in vivo, Beta vulgaris; details: for Plant response rating, Sugarbeets: Postemergence
Outline: as §1

wheat = test: Test B pre/postemergence wheat; type: in vivo, Triticum aestivum; details: for Plant response rating, Wheat: Postemergence
Outline: as §1

[1] = Postemergence, Rate 62 g/ha, scale of 0 to 10, 0 is no effect, 10 is complete control
[2] = Postemergence, Rate 125 g/ha, scale of 0 to 10 where 0 is no effect and 10 is complete control
[3] = Postemergence, Rate 500 g/ha, scale of 0 to 10 where 0 is no effect and 10 is complete control
[4] = Preemergence, Rate 62 g/ha, scale 0 to 10 (0 no effect, 10 complete control)
[5] = Preemergence, Rate 125 g/ha, scale of 0 to 10 where 0 is no effect and 10 is complete control
[6] = Preemergence, Rate 500 g/ha, scale of 0 to 10 where 0 is no effect and 10 is complete control
[7] = Rate 125 g/ha, scale of 0 to 10 where 0 is no effect and 10 is complete control
[8] = Rate 500 g/ha, scale of 0 to 10 where 0 is no effect and 10 is complete control
[9] = Rate 250 g/ha, scale of 0 to 10 where 0 is no effect and 10 is complete control
[10] = Rate 250 g/ha, Postemergence, scale of 0 to 10 where 0 is no effect and 10 is complete control

CC(C)N(C(=O)n1oc(=O)n(CCCCF)c1=O)c1ccccc1 [Compound 581]
Bedstraw plant response rating (bedstraw; [1]): 0
Plant response rating, Bedstraw (bedstraw; [2]): 8
Plant response rating, Bedstraw (bedstraw; [3]): 9
Bedstraw plant response rating (bedstraw; [4]): 8
Bedstraw plant response rating (bedstraw; [5]): 9
Bedstraw plant response rating (0 to 10 scale) (bedstraw; Preemergence, Rate 250 g/ha): 7
Bedstraw plant response rating (bedstraw; [6]): 9
Plant response rating, Wild oats (wild oat; [7]): 5
Plant response rating, Wild oats (wild oat; [8]): 5
Wild oats plant response rating (wild oat; [4]): 0
Wild oats plant response rating (wild oat; [5]): 0
Wild oats plant response rating (0 to 10 scale) (wild oat; Preemergence, Rate 250 g/ha): 0
Wild oats plant response rating (wild oat; [6]): 8
Plant response rating, Wild oats (wild oat; [9]): 5
Cocklebur plant response rating (cocklebur; [1]): 2
Plant response rating, Cocklebur (cocklebur; [3]): 3
Cocklebur plant response rating (cocklebur; [4]): 0
Cocklebur plant response rating (cocklebur; [5]): 0
Cocklebur plant response rating (0 to 10 scale) (cocklebur; Preemergence, Rate 250 g/ha): 0
Cocklebur plant response rating (cocklebur; [6]): 0
Plant response rating, Cocklebur (cocklebur; [10]): 3
Blackgrass plant response rating (blackgrass; [1]): 4
Plant response rating, Blackgrass (blackgrass; [2]): 4
Plant response rating, Blackgrass (blackgrass; [3]): 4
Blackgrass plant response rating (blackgrass; [4]): 0
Blackgrass plant response rating (blackgrass; [5]): 0
Blackgrass plant response rating (0 to 10 scale) (blackgrass; Preemergence, Rate 250 g/ha): 0
Blackgrass plant response rating (blackgrass; [6]): 7
Plant response rating, Blackgrass (blackgrass; [10]): 4
Plant response rating, Velvetleaf (velvetleaf; [7]): 4
Plant response rating, Velvetleaf (velvetleaf; [8]): 6
Velvetleaf plant response rating (velvetleaf; [4]): 5
Velvetleaf plant response rating (velvetleaf; [5]): 5
Velvetleaf plant response rating (0 to 10 scale) (velvetleaf; Preemergence, Rate 250 g/ha): 5
Velvetleaf plant response rating (velvetleaf; [6]): 10
Plant response rating, Velvetleaf (velvetleaf; [9]): 6
B. signalgrass plant response rating (surinam grass; [1]): 5
Plant response rating, B. signalgrass (surinam grass; [2]): 5
Plant response rating, B. signalgrass (surinam grass; [3]): 8
B. signalgrass plant response rating (surinam grass; [4]): 0
B. signalgrass plant response rating (surinam grass; [5]): 0
B. signalgrass plant response rating (0 to 10 scale, 0 is no effect, 10 is complete control) (surinam grass; Preemergence, Rate 250 g/ha): 2
B. signalgrass plant response rating (surinam grass; [6]): 9
Plant response rating, B. signalgrass (surinam grass; [10]): 7
Morningglory plant response rating (morningglory; [1]): 4
Plant response rating, Morningglory (morningglory; [2]): 8
Plant response rating, Morningglory (morningglory; [3]): 10
Morningglory plant response rating (morningglory; [4]): 0
Morningglory plant response rating (morningglory; [5]): 2
Morningglory plant response rating (0 to 10 scale) (morningglory; Preemergence, Rate 250 g/ha): 4
Morningglory plant response rating (morningglory; [6]): 6
Plant response rating, Morningglory (morningglory; [10]): 7
Nutsedge plant response rating (purple nutsedge; [1]): 0
Nutsedge plant response rating (purple nutsedge; [4]): 0
Nutsedge plant response rating (purple nutsedge; [5]): 0
Nutsedge plant response rating (0 to 10 scale) (purple nutsedge; Preemergence, Rate 250 g/ha): 4
Nutsedge plant response rating (purple nutsedge; [6]): 8
Giant foxtail plant response rating (giant foxtail; [1]): 7
Plant response rating, Giant foxtail (giant foxtail; [2]): 8
Plant response rating, Giant foxtail (giant foxtail; [3]): 9
Giant foxtail plant response rating (giant foxtail; [4]): 4
Giant foxtail plant response rating (giant foxtail; [5]): 10
Giant foxtail plant response rating (0 to 10 scale) (giant foxtail; Preemergence, Rate 250 g/ha): 9
Giant foxtail plant response rating (giant foxtail; [6]): 10
Plant response rating, Giant foxtail (giant foxtail; [10]): 8
Plant response rating, Soybean (soybean; [7]): 4
Plant response rating, Soybean (soybean; [8]): 5
Soybean plant response rating (soybean; [4]): 0
Soybean plant response rating (soybean; [5]): 0
Soybean plant response rating (0 to 10 scale) (soybean; Preemergence, Rate 250 g/ha): 5
Soybean plant response rating (soybean; [6]): 7
Plant response rating, Soybean (soybean; [9]): 4
Plant response rating, Redroot pigweed (pigweed; Rate 125 g/ha): 8
Plant response rating, Redroot pigweed (pigweed; Rate 500 g/ha): 9
Redroot pigweed plant response rating (pigweed; Preemergence, Rate 125 g/ha): 5
Redroot pigweed plant response rating (0 to 10 scale) (pigweed; Preemergence, Rate 250 g/ha): 9
Redroot pigweed plant response rating (pigweed; Preemergence, Rate 500 g/ha): 10
Plant response rating, Redroot pigweed (pigweed; Rate 250 g/ha): 8
Corn plant response rating (corn; [1]): 2
Plant response rating, Corn (corn; [2]): 4
Plant response rating, Corn (corn; [3]): 6
Corn plant response rating (corn; [4]): 0
Corn plant response rating (corn; [5]): 2
Corn plant response rating (0 to 10 scale) (corn; Preemergence, Rate 250 g/ha): 7
Corn plant response rating (corn; [6]): 9
Plant response rating, Corn (corn; [10]): 5
Rape plant response rating (rape; [1]): 0
Plant response rating, Rape (rape; [2]): 7
Plant response rating, Rape (rape; [3]): 7
Rape plant response rating (rape; [4]): 0
Rape plant response rating (rape; [5]): 0
Rape plant response rating (0 to 10 scale) (rape; Preemergence, Rate 250 g/ha): 2
Rape plant response rating (rape; [6]): 7
Plant response rating, Rape (rape; [10]): 7
Crabgrass plant response rating (crabgrass; [1]): 3
Plant response rating, Crabgrass (crabgrass; [2]): 7
Plant response rating, Crabgrass (crabgrass; [3]): 9
Crabgrass plant response rating (crabgrass; [4]): 4
Crabgrass plant response rating (crabgrass; [5]): 9
Crabgrass plant response rating (0 to 10 scale) (crabgrass; Preemergence, Rate 250 g/ha): 8
Crabgrass plant response rating (crabgrass; [6]): 9
Plant response rating, Crabgrass (crabgrass; [10]): 7
Plant response rating, Sugarbeets (sugar beet; [7]): 5
Plant response rating, Sugarbeets (sugar beet; [8]): 8
Sugarbeets plant response rating (sugar beet; [4]): 0
Sugarbeets plant response rating (sugar beet; [5]): 0
Sugarbeets plant response rating (0 to 10 scale) (sugar beet; Preemergence, Rate 250 g/ha): 0
Sugarbeets plant response rating (sugar beet; [6]): 9
Plant response rating, Sugarbeets (sugar beet; [9]): 7
Plant response rating, Wheat (wheat; [7]): 4
Plant response rating, Wheat (wheat; [8]): 4
Wheat plant response rating (wheat; [4]): 0
Wheat plant response rating (wheat; [5]): 0
Wheat plant response rating (0 to 10 scale) (wheat; Preemergence, Rate 250 g/ha): 2
Wheat plant response rating (wheat; [6]): 5
Plant response rating, Wheat (wheat; [9]): 4
